# Assay results published in the supplement of paper PMC6045584.
# ± gives the standard deviation of the averaged measurements.
# Assays:
# MK-1775 = compound: C=CCn1c(=O)c2cnc(Nc3ccc(N4CCN(C)CC4)cc3)nc2n1-c1cccc(C(C)(C)O)n1 [MK-1775]; experiment: surviving fraction relative to DMSO-only wells; higher = less growth inhibition; conditions: exposure time: 5 days
# In short: (§1)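 Tumour cell lines were grown to log phase and seeded at 250–500 cells per well in 384-well plates. They were exposed continuously to inhibitors at 0.5, 1, 5, 10, 50, 100, 500 and 1000 nM for five days, beginning 24 hours after seeding. Surviving fraction is CellTiter-Glo luminescence normalised to the median of DMSO-only wells.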
# [1] = compound: C[C@@H]1CN(CC(=O)Nc2ccc3c(c2)Cc2cccc(-c4cc(=O)cc(N5CCOCC5)o4)c2S3)C[C@H](C)O1; experiment: as above; conditions: exposure time: 5 days
# In short: as §1
Test System,surviving fraction (MK-1775; 0.5 nM),surviving fraction (MK-1775; 1 nM),surviving fraction (MK-1775; 5 nM),surviving fraction (MK-1775; 10 nM),surviving fraction (MK-1775; 50 nM),surviving fraction (MK-1775; 100 nM),surviving fraction (MK-1775; 500 nM),surviving fraction (MK-1775; 1000 nM),surviving fraction ([1]; 0.5 nM),surviving fraction ([1]; 1 nM),surviving fraction ([1]; 5 nM),surviving fraction ([1]; 10 nM),surviving fraction ([1]; 50 nM),surviving fraction ([1]; 100 nM),surviving fraction ([1]; 500 nM),surviving fraction ([1]; 1000 nM)
22RV1 PROSTATE,1.01 ± 0.03,1.01 ± 0.066,0.972 ± 0.051,1 ± 0.021,1.03 ± 0.033,0.877 ± 0.083,0.608 ± 0.028,0.263 ± 0.039,1.07 ± 0.068,1.07 ± 0.021,1.02 ± 0.045,1.04 ± 0.044,1.12 ± 0.07,1.12 ± 0.074,1.08 ± 0.09,1.08 ± 0.031
93VU HEADNECK,1.05 ± 0.098,0.996 ± 0.034,1.13 ± 0.1,1.01 ± 0.033,0.649 ± 0.063,0.416 ± 0.038,0.22 ± 0.021,0.165 ± 0.029,0.955 ± 0.062,1.09 ± 0.041,1.07 ± 0.069,1.05 ± 0.029,0.968 ± 0.024,0.943 ± 0.067,0.893 ± 0.045,0.836 ± 0.035
143B BONE,0.998 ± 0.0057,1.01 ± 0.033,1.02 ± 0.045,1.02 ± 0.0028,1.025 ± 0.0057,0.993 ± 0.013,0.111 ± 0.011,0.067 ± 0.0042,1.03 ± 0.034,0.994 ± 0.016,1.02,1.02 ± 0.03,1.03 ± 0.035,1.01 ± 0.013,1 ± 0.011,0.9405 ± 0.0064
A549 LUNG,1.02 ± 0.051,0.985 ± 0.059,0.995 ± 0.057,0.998 ± 0.032,1.05 ± 0.037,1.08 ± 0.047,0.816 ± 0.02,0.38 ± 0.011,1.05 ± 0.049,1.05 ± 0.025,1.08 ± 0.02,1.08 ± 0.021,1.07 ± 0.012,1.098 ± 0.0099,1.1 ± 0.016,1.13 ± 0.032
ASKA SYNOVIAL,0.946 ± 0.032,1.02 ± 0.1,1.1 ± 0.03,1.02 ± 0.023,0.405 ± 0.0092,0.406 ± 0.012,0.295 ± 0.019,0.37 ± 0.015,1.17 ± 0.013,1.21 ± 0.12,1.26 ± 0.11,1.21 ± 0.093,1.17 ± 0.059,1.15 ± 0.1,1.13 ± 0.1,0.978 ± 0.14
BT20 BREAST,1.12 ± 0.23,1.05 ± 0.19,1.06 ± 0.17,1.04 ± 0.21,1.09 ± 0.3,0.972 ± 0.21,0.162 ± 0.02,0.0827 ± 0.021,1.04 ± 0.052,1.13 ± 0.044,1.1 ± 0.1,1.06 ± 0.081,0.843 ± 0.11,0.894 ± 0.089,0.902 ± 0.076,0.741 ± 0.045
BT549 BREAST,1.15 ± 0.1,1.11 ± 0.13,1.09 ± 0.089,1.04 ± 0.089,0.783 ± 0.038,0.427 ± 0.011,0.0453 ± 0.0057,0.0453 ± 0.0032,1.1 ± 0.25,0.918 ± 0.16,0.996 ± 0.083,1.08 ± 0.11,0.738 ± 0.14,0.741 ± 0.14,0.774 ± 0.14,0.658 ± 0.27
C33A CERVIX,0.908 ± 0.063,0.986 ± 0.15,1 ± 0.053,0.962 ± 0.11,0.895 ± 0.073,0.491 ± 0.025,0.043 ± 0.02,0.0347 ± 0.0064,0.963 ± 0.082,1.01 ± 0.1,1.06 ± 0.051,1.1 ± 0.074,1.06 ± 0.067,1.14 ± 0.14,0.973 ± 0.059,0.827 ± 0.1
CADOES1 SOFT TISSUE,0.978 ± 0.014,0.929 ± 0.11,0.95 ± 0.036,0.887 ± 0.049,0.92 ± 0.094,0.832 ± 0.065,0.444 ± 0.034,0.218 ± 0.017,0.951 ± 0.15,0.965 ± 0.065,0.974 ± 0.07,0.981 ± 0.084,1.11 ± 0.055,0.995 ± 0.1,1.01 ± 0.096,1.02 ± 0.032
CAL51 BREAST,0.966 ± 0.047,0.9993 ± 0.0062,1.01 ± 0.016,0.994 ± 0.044,0.853 ± 0.012,0.48 ± 0.031,0.0318 ± 0.0013,0.0317 ± 0.0026,0.954 ± 0.023,0.939 ± 0.028,1.02 ± 0.019,0.997 ± 0.069,1.01 ± 0.028,1.02 ± 0.027,0.922 ± 0.011,0.851 ± 0.026
CAL72 BONE,1.06 ± 0.019,1.08 ± 0.041,1.07 ± 0.047,1.05 ± 0.023,1.11 ± 0.041,0.959 ± 0.018,0.123 ± 0.0076,0.109 ± 0.0067,1.01 ± 0.015,1.06 ± 0.03,1.03 ± 0.011,1.03 ± 0.021,0.955 ± 0.021,0.97 ± 0.0097,0.897 ± 0.026,0.811 ± 0.026
CAL120 BREAST,0.9598 ± 0.0037,0.944 ± 0.011,0.985 ± 0.026,0.9663 ± 0.0029,0.902 ± 0.016,0.783 ± 0.027,0.2 ± 0.015,0.12 ± 0.018,1.01 ± 0.029,1.02 ± 0.013,1.03 ± 0.02,1.04 ± 0.011,1.02 ± 0.022,1 ± 0.015,0.946 ± 0.046,0.87 ± 0.018
CASKI CERVIX,0.887 ± 0.032,0.916 ± 0.071,0.99 ± 0.044,0.919 ± 0.049,0.479 ± 0.022,0.187 ± 0.012,0.0533 ± 0.0051,0.0453 ± 0.0068,0.925 ± 0.041,0.982 ± 0.035,0.963 ± 0.019,0.989 ± 0.07,0.91 ± 0.047,0.855 ± 0.057,0.759 ± 0.04,0.625 ± 0.037
CHLA90 AUTONOMIC GANGLIA,1.03 ± 0.051,1.06 ± 0.073,0.981 ± 0.023,0.963 ± 0.024,0.791 ± 0.011,0.681 ± 0.036,0.0927 ± 0.0067,0.076 ± 0.013,1.03 ± 0.052,1.07 ± 0.045,0.994 ± 0.07,1.08 ± 0.07,0.979 ± 0.0078,0.999 ± 0.068,1 ± 0.11,0.966 ± 0.041
CME SYNOVIAL,1.36 ± 0.27,1.31 ± 0.096,1.5 ± 0.11,1.24 ± 0.13,1.45 ± 0.094,1.4 ± 0.11,1.3 ± 0.18,0.385 ± 0.025,1.35 ± 0.097,1.44 ± 0.15,1.25 ± 0.042,1.28 ± 0.13,1.11 ± 0.085,1.02 ± 0.054,0.689 ± 0.11,0.388 ± 0.014
COLO320DM LARGE INTESTINE,1.09 ± 0.063,1.1 ± 0.12,1.08 ± 0.12,1.12 ± 0.033,0.834 ± 0.054,0.592 ± 0.16,0.139 ± 0.011,0.131 ± 0.014,1.04 ± 0.11,1.06 ± 0.12,1.05 ± 0.13,1.07 ± 0.059,1.04 ± 0.033,1.09 ± 0.037,1.03 ± 0.056,0.99 ± 0.015
DU4475 BREAST,1.1 ± 0.26,1.15 ± 0.088,1.01 ± 0.068,0.889 ± 0.059,0.686 ± 0.28,0.554 ± 0.23,0.102 ± 0.034,0.037 ± 0.0056,1.12 ± 0.23,1.08 ± 0.011,0.951 ± 0.13,1.18 ± 0.12,0.794 ± 0.22,1.12 ± 0.36,1.31 ± 0.55,1.05 ± 0.23
H23 LUNG,1.04 ± 0.018,1.02 ± 0.041,1.04 ± 0.06,1.03 ± 0.1,0.86 ± 0.054,0.632 ± 0.045,0.285 ± 0.023,0.209 ± 0.034,1.08 ± 0.042,1.05 ± 0.021,1.11 ± 0.048,1.1 ± 0.033,1.09 ± 0.083,1.17 ± 0.056,1.06 ± 0.036,1.05 ± 0.045
HCC78 LUNG,0.883 ± 0.12,0.875 ± 0.14,1.07 ± 0.32,1.02 ± 0.13,0.827 ± 0.15,0.839 ± 0.08,0.105 ± 0.022,0.0803 ± 0.02,1.13 ± 0.16,0.941 ± 0.26,1.07 ± 0.11,1.21 ± 0.21,1.15 ± 0.17,1.41 ± 0.29,1.27 ± 0.39,1.29 ± 0.013
HCC202 BREAST,1.137 ± 0.0059,1.13 ± 0.2,1.01 ± 0.21,0.991 ± 0.061,0.908 ± 0.17,0.712 ± 0.22,0.347 ± 0.08,0.361 ± 0.075,1.01 ± 0.17,0.911 ± 0.089,0.845 ± 0.24,1.11 ± 0.26,0.84 ± 0.11,0.946 ± 0.25,0.845 ± 0.18,0.838 ± 0.28
